In brackets after ≈: the same amount, converted by molar mass. Several values for one entry are separate records, joined by “and”; a condition that tells them apart may be missing. Equal entries are not always repeated. Where two headings read alike, the source gives them in different places.
Columns and labels:
[1] = system: carboxylesterase (CaE); experiment: CaE assay in homogenate of surviving treated larvae; type: biochemical, Culex pipiens; details: larvae 24 h after treatment with LC50, untreated 3.31
Procedure: CaE activity was determined according to Van Asperen’s method, which used α-naphthyl acetate as a substrate. The assay mixture contained 50 μL of homogenate enzyme, 2.1 mL of 50 mM sodium phosphate buffer (pH 7.4), and 25 μL of 5 mM α-naphthyl acetate solution. The mixture incubation was done at 37 °C for 15 min. […] The absorption was measured at 555 nm. The enzyme activity was expressed as OD555 min^−1 mg protein^−1.

[2] = system: glutathione-S-transferase (GST); details: larvae 24 h after treatment with LC50, untreated 2.70
Procedure: The homogenate was centrifuged at 5000 rpm for 20 min at 4°C. The supernatant was used immediately for enzymatic assay or stored at – 20 °C. Total protein was determined according to Lowry et al.’s [23] method, and the concentrations were calculated by comparing with the standard curve of BSA.
GST assay was performed using reduced glutathione (2.5 mM) by Saint-Deniset et al. [26]. The assay mixture contained 100 μL of 1.5 mM CDNB, 200 μL of reduced glutathione, and 1.5 ml of pH 7.4 phosphate buffer. A total of 200 μL of the enzyme was added to the above mixture, shaken gently, and incubated for 15 min at 37 °C. The absorbance was recorded at 340 nm using a UV/Visible spectrophotometer (Alpha-1502. Laxco Inc, USA). One unit of enzyme activity attributed to the quantity of conjugated enzyme with 1 mmol of GSH per min. The enzyme activity was expressed as OD340 min^−1 mg protein^−1.

[3] = system: adenosine triphosphatase (ATPase); experiment: ATPase assay in homogenate of surviving treated larvae; type: biochemical, Culex pipiens; details: larvae 24 h after treatment with LC50, untreated 1.40
Procedure: ATPase activity was performed according to Koch’s method. The reaction mixture, which contained 400 mM Na^+, 20 mM K^+, 5 mM Mg ^+, and 5 mM ATP, was prepared, and 200 μL of the crude enzyme was added to this mixture. Then, the volume was completed to 950 μL with Tris-HCl buffer (pH 7.4). After 10 min incubation at 37 °C, the reaction was stopped with 200 μL of TCA. A fresh color reagent (5 g ferrous sulfate in 10 mL ammonium molybdate solution prepared in 10 N sulfuric acid) was added to the reaction mixture. The absorbance of the developed blue color was measured at 740 nm, and the enzyme activity was calculated as OD740 min^−1 mg protein^−1.

[4] = system: freshwater green alga Raphidocelis subcapitata; experiment: whole plant or invertebrate; details: for EC50: Raphidocelis subcapitata, 96 h, read-out: 96 h EC50 (95% confidence limits); for NOEC: no observed effect concentration on algal growth rate, NOEC = EC/10
Procedure: The freshwater green alga Raphidocelis subcapitata was obtained from the Faculty of Science; Mansoura University, Egypt. The stock culture was maintained in 250-mL borosilicate Erlenmeyer flasks containing culture medium at 24 ± 2 °C, under a continuous white fluorescent light of 3000–4000 lux, and manually shaken twice a day. The axenic culture was maintained for the provision of a continuous supply of “healthy” cells for the tests in a standard algal assay medium (AAM) as described in Miller et al..
An acute algal growth inhibition test was conducted using different concentrations of each insecticide in sterile AAM in a final volume of 50 mL. Tested concentrations of a pesticide were prepared from stock solutions on an arithmetic progression covering an expected range of toxicity from 0 to 90%. Stock solutions of technical insecticides were prepared in 1% DMSO and a corresponding control was included. Stock solutions of the EC and NE were prepared. Algal suspensions were exposed to different concentrations (0.0005–500 mg/L) prepared in the same medium of algae culture. All assays were conducted in triplicate. An inoculum of the exponentially-growing culture of R. subcapitata (harvested from 4–7 days stock culture) was prepared no more than 2–3 h before the beginning of the test. Initial cell density for the growth inhibition test was 10,000 cells/ml in both test and control flasks. Zero-time begins at inoculation of all flasks with the algal cells followed by incubation for 96 h in a temperature-controlled (25 °C) orbital shaker set at 100 rpm under continuous illumination via white fluorescent lamps. After 96 h, algal growth in terms of viable cell concentration was examined in a Neubauer hemocytometer using a phase-contrast microscope. Growth rate inhibition of the alga was used as the endpoint in this assessment. The percent inhibition values were calculated after 96 h, and the median effective concentration (EC50) values were calculated from the probit analysis with 95% confidence limits. The no observed effect concentration (NOEC) after algal exposure to each tested insecticide was calculated by the formula: NOEC = EC/10 [31]. Furthermore, the hazard statement of each tested insecticide was estimated according to UNECE GHS (2019).
Statistical analysis was performed using the IBM SPSS software version 25.0 (SPSS, Chicago, IL, USA). Mortality percentages were calculated for each treatment and corrected using Abbott’s equation [34]. Means and standard error (SE) were obtained from three independent replications performed for each treatment. The log dose-response (LdP) lines were used in the determination of the LC50 values for the mosquito’s bioassay and EC50 values for the algal bioassay according to the probit analysis. The least-square regression analysis was used to determine the 95% confidence limits. Analysis of variance (ANOVA) of the biochemical data was conducted and means property values were separated (p ≤ 0.05) with Student-Newman-Keuls (SNK).

[5] = system: Culex pipiens larvae; experiment: Toxicity assay against C. pipiens larvae (WHO larval bioassay); type: in vivo; details: for LC50: Culex pipiens
Excerpt: A susceptible strain of C. pipiens culture was obtained from Research Institute of Medical Entomology, Ministry of Health, Dokki, Giza, Egypt, and reared in High Institute of Public Health insectary, Alexandria University, Alexandria, Egypt. The Larvae were fed on biscuits [containing wheat flour and yeast powder mixed with milk powder (10: 1: 1, w/w, respectively)] until pupation in shallow trays containing 2–3 L of de-chlorinated water. Male adults were fed on 30% sucrose solution, and females were fed on pigeon blood four times a week in adult cages. […] The egg rafts were transferred from adult cages to white trays containing de-chlorinated water for egg hatch.
According to the World Health Organization, the larval bioassay was performed to compare the effect of nanoemulsions of selected pyrethroids with their active ingredient and commercial EC formulations on the C. pipiens larva recommendations. Third instar larvae were used in the evaluation by a direct contact method. The three forms of tested insecticides (technical, commercial EC formulation, and nanoemulsion) were tested to obtain the LC50 values. Technical pyrethroids were dissolved in DMSO and mixed with Tween-80 (0.05%), while the EC and nanoemulsions were dissolved in distilled water. Different concentrations ranging from 0.5 to 500 μg/L were tested in three replicates. Twenty C. pipiens larvae were put into plastic cups containing 100 mL of de-chlorinated water. The larvae were treated separately with Tween 80 or DMSO, and larvae without any treatment were maintained as control. The larvae’s morbidity and mortality were verified and recorded based on the larvae’s uncoordinated movement after investigating the cervical region with a needle.

[6] = system: C. tritaeniorhynchus larvae; design: method as in PMID 28245893; details: cited from earlier work
[7] = cited from earlier work

| SMILES | Specific activity ± SE, CaE [1] | EC50 [4] | NOEC [4] | Slope ± SE of the concentration mortality regression line ([5]; 24 h exposure) | Slope ± SE of the concentration mortality regression line ([5]; 48 h exposure) | LC50 ([5]; 24 h) | LC50 ([5]; 48 h) | further results |
| --- | --- | --- | --- | --- | --- | --- | --- | --- |
| CC1(C)[C@H](C(=O)O[C@H](C#N)c2cccc(Oc3ccccc3)c2)[C@@H]1/C=C(\Cl)C(F)(F)F (racemic) [Lambda-cyhalothrin, lambda-cyhalothrin] | 1.51 ± 0.09 OD mg protein^−1 min | 33.9 µg/mL (≈ 75.3 µM) | 3.389 mg/L | 1.47 ± 0.09 | 1.30 ± 0.09 | 0.027 µg/mL (≈ 0.06 µM) | 0.018 µg/mL (≈ 0.04 µM) | Specific activity ± SE, GST ([2]; listed as Lambda-cyhalothrin T): 4.57 OD mg protein^−1 min and 4.57 ± 0.48 OD mg protein^−1 min; Specific activity ± SE, ATPase ([3]; listed as Lambda-cyhalothrin T): 0.62 OD mg protein^−1 min and 0.62 ± 0.05 OD mg protein^−1 min |
| CC1(C)C(C=C(Cl)Cl)C1C(=O)OC(C#N)c1cccc(Oc2ccccc2)c1 (stereo not drawn) [Alpha-cypermethrin, alpha-cypermethrin] | 5.06 ± 0.15 OD mg protein^−1 min | 69.3 µg/mL (≈ 167 µM) | 6.932 mg/L | 2.47 ± 0.15 |  | 0.043 µg/mL (≈ 0.103 µM) | 0.04 µg/mL (≈ 0.0961 µM) | Specific activity ± SE, GST ([2]; listed as Alpha-cypermethrin T): 5.31 OD mg protein^−1 min and 5.31 ± 0.70 OD mg protein^−1 min; Specific activity ± SE, ATPase ([3]; listed as Alpha-cypermethrin T): 0.86 OD mg protein^−1 min and 0.86 ± 0.02 OD mg protein^−1 min |
| CC1(C)[C@H](C(=O)O[C@H](C#N)c2cccc(Oc3ccccc3)c2)[C@@H]1C=C(Br)Br [Deltamethrin, deltamethrin] |  | > 100 µg/mL | > 10 mg/L | 2.23 ± 0.13 | 2.12 ± 0.13 |  |  | Specific activity ± SE, CaE ([1]; listed as Deltamethrin T): 4.53 OD mg protein^−1 min and 3.44 ± 0.19 OD mg protein^−1 min; Specific activity ± SE, GST [2]: 5.49 ± 0.60 OD mg protein^−1 min; Specific activity ± SE, ATPase ([3]; listed as Deltamethrin T): 0.69 OD mg protein^−1 min and 0.69 ± 0.02 OD mg protein^−1 min; LC50 ([5]; third instar larvae, 24 h exposure, read-out: LC50): 0.028 µg/mL (≈ 0.0554 µM); LC50 ([5]; third instar larvae, 48 h exposure, read-out: LC50): 0.025 µg/mL (≈ 0.0495 µM) |
| CC1(C)C(C=C(Cl)Cl)C1C(=O)OCc1cccc(Oc2ccccc2)c1 (centres unmarked) [Permethrin, permethrin] | 2.31 ± 0.09 OD mg protein^−1 min | 14.9 µg/mL (≈ 38.2 µM) | 1.494 mg/L | 1.36 ± 0.089 | 1.26 ± 0.08 | 0.322 µg/mL (≈ 0.823 µM) | 0.225 µg/mL (≈ 0.575 µM) | Specific activity ± SE, GST ([2]; listed as Permethrin T): 6.32 OD mg protein^−1 min and 6.32 ± 0.59 OD mg protein^−1 min; Specific activity ± SE, ATPase ([3]; listed as Permethrin T): 0.64 OD mg protein^−1 min and 0.64 ± 0.00 OD mg protein^−1 min; LC50 ([5]; read-out: LC50 range): 0.127 to 0.322 µg/mL (≈ 0.325 to 0.823 µM) |
| CC1(C)C(C=C(Cl)Cl)C1C(=O)OCc1cccc(Oc2ccccc2)c1 (centres unmarked) [bulk permethrin, permethrin] |  |  |  |  |  |  |  | LC50 [6]: 0.442 µg/mL (≈ 1.13 µM) |
| C[n+]1ccc(-c2cc[n+](C)cc2)cc1 [paraquat] |  |  |  |  |  |  |  | 96 h EC50 [7]: 0.48 µg/mL |

— article PMC8282878, “Enhanced mosquitocidal efficacy of pyrethroid insecticides by nanometric emulsion preparation towards Culex pipiens larvae with biochemical and molecular docking studies” (Journal of the Egyptian Public Health Association, 2021)
